# Assay results taken from patent US7479471B2, “2-Amino-4-bicyclylamino-6H-1,3,5-triazines, processes for their preparation and their use as herbicides and plant growth regulators” (Bayer CropScience GmbH, priority 2002, dated 2009).
# Legend:
# Format in all cases: in vivo
# [1] = tested on: monocotyledonous and dicotyledonous weed plants; assay: Pre-emergence herbicidal action (greenhouse pot test); details: pre-emergence method; application rate of 0.5 kg and less of active substance per hectare; Sinapis alba, Chrysanthemum segetum, Avena sativa, Stellaria media, Echinochloa crus-galli, Lolium multiflorum, Setaria spp., Abutilon theophrasti, Amaranthus retrofluxus, Panicum miliaceum
# Description: Seeds or rhizome pieces of monocotyledonous and dicotyledonous weed plants are placed in sandy loam in plastic pots and covered with soil. The compounds according to the invention, which are formulated in the form of wettable powders or emulsion concentrates, are then applied to the surface of the soil cover as aqueous suspension or emulsion at various dosages with an application rate of 600 to 800 l of water/ha (converted).
# After the treatment, the pots are placed into a greenhouse and kept under good growth conditions for the weeds. The plant or emergence damage is scored visually after the untreated controls have emerged. As shown by the test results, the compounds according to the invention have good herbicidal pre-emergence activity against a broad spectrum of weed grasses and broad-leaved weeds.
# [2] = tested on: monocotyledonous and dicotyledonous weeds; assay: Post-emergence herbicidal action (greenhouse pot test); details: post-emergence method; application rate of 0.5 kg or less of active substance per hectare; scored after approx. 3 to 4 weeks; Sinapis alba, Echinochloa crus-galli, Lolium multiflorum, Chrysanthemum segetum, Setaria spp., Abutilon theophrasti, Amaranthus retroflexus, Panicum miliaceum, Avena sativa
# Experimental: Seeds or rhizone pieces of monocotyledonous and dicotyledonous weeds are placed in sandy loam in plastic pots, covered with soil and grown in the greenhouse under good growth conditions. Three weeks after sowing, the test plants are treated at the three-leaf stage. Various dosages of the compounds according to the invention, which are formulated as wettable powders or emulsion concentrates, are sprayed onto the green plant parts at an application rate of 600 to 800 l of water per ha (converted), and after the test plants have been left to stand in the greenhouse for approx. 3 to 4 weeks under optimum growth conditions, the effect of the preparations is scored visually by comparison with untreated controls. The compositions according to the invention also have good herbicidal post-emergence activity against a broad spectrum of economically important weed grasses and broad-leaved weeds.
# [3] = tested on: harmful plants which are typical for rice crops; assay: Action against harmful plants in rice (paddy rice conditions); details: applied to the paddy water; approximately three weeks after application; Cyperus monti, Echinochloa crus-galli, Eleocharis acicularis, Sagittaria pygmaea; further: test concentration or dose not given here
# Experimental: Transplanted and seeded rice and typical rice weeds are grown in the greenhouse until they have reached the three-leaf stage (Echinochloa 1.5-leaves) under paddy rice conditions (flooding level of the water: 2-3 cm) in closed plastic pots. They are then treated with the compounds according to the invention. To this end, the formulated active substances are suspended, dissolved or emulsified in water and applied to the paddy water of the test plants at various dosages by application by pouring.
# After the treatment has been carried out in this way, the test plants are placed into the greenhouse under optimum growth conditions and are kept in this way over the entire experimental period.
# crop plants = assay: Crop plant tolerance (greenhouse, pre- and post-emergence); details: visual scoring four to five weeks after application
# Experimental: In further greenhouse experiments, seeds of a relatively large number of crop plants and weeds are placed in sandy loam and covered with soil. Some of the pots are treated immediately as described in Section 1, while the remaining pots are placed in the greenhouse until the plants have developed two to three real leaves, and they are then sprayed with various dosages of substances of the formula (I) according to invention as described in Section 2. Four to five weeks after the application and standing time in the greenhouse, it is found by means of visual scoring that the compounds according to the invention leave dicotyledonous crops such as, for example, soybeans, cotton, oilseed rape, sugar beet and potatoes unharmed when applied pre- and post-emergence, even at high rates of active compound. In addition, some substances also leave graminaceous crops such as, for example, barley, wheat, rye, sorghum, corn or rice, unharmed.
Structure (SMILES),"herbicidal action against harmful plants, scored visually [1]","herbicidal action against harmful plants, scored visually [2]","herbicidal action against harmful plants typical for rice crops, scored visually [3]",selectivity (crop plants versus weeds) (crop plants)
Cc1ccc2c(c1)C(Nc1ncnc(N)n1)CC2 (stereo not drawn) [Example 146],very good herbicidal action,very good herbicidal action,very good herbicidal action,in some cases high selectivity
CC1Cc2cc(Cl)ccc2C1Nc1ncnc(N)n1 (stereo not drawn) [Example 58],very good herbicidal action,very good herbicidal action,very good herbicidal action,in some cases high selectivity
Cc1cc(C)c2c(c1)C(Nc1ncnc(N)n1)CCS2 (stereo not drawn) [Example 79],very good herbicidal action,very good herbicidal action,very good herbicidal action,in some cases high selectivity
Nc1ncnc(NC2CCc3ccccc32)n1 (stereo not drawn) [Example 185],very good herbicidal action,very good herbicidal action,very good herbicidal action,in some cases high selectivity
CC1Cc2ccc(F)cc2C1Nc1ncnc(NC(=O)CCl)n1 (stereo not drawn) [Example 286],very good herbicidal action,very good herbicidal action,very good herbicidal action,in some cases high selectivity
Nc1ncnc(NC2CCOc3ccc(F)cc32)n1 (stereo not drawn) [Example 289],very good herbicidal action,very good herbicidal action,very good herbicidal action,in some cases high selectivity
Cc1cc(C)c2c(c1)C(Nc1ncnc(N)n1)CCC2 (stereo not drawn) [Example 1],very good herbicidal action,very good herbicidal action,very good herbicidal action,in some cases high selectivity
CC1Cc2ccc(F)cc2C1Nc1ncnc(NC(=O)C(F)(F)F)n1 (stereo not drawn) [Example 285],very good herbicidal action,very good herbicidal action,very good herbicidal action,in some cases high selectivity
Cc1ccc2c(c1)C(Nc1ncnc(N)n1)C(C)C2 (stereo not drawn) [Example 281],very good herbicidal action,very good herbicidal action,very good herbicidal action,in some cases high selectivity
Cc1ccc2c(c1)C(Nc1ncnc(N)n1)C(C)(C)C2 (stereo not drawn) [Example 292],very good herbicidal action,very good herbicidal action,very good herbicidal action,in some cases high selectivity
Cc1cc(F)cc2c1OCCC2Nc1ncnc(N)n1 (stereo not drawn) [Example 288],very good herbicidal action,very good herbicidal action,very good herbicidal action,in some cases high selectivity
Cc1cc2c(cc1C)C(Nc1ncnc(N)n1)C(C)C2 (stereo not drawn) [Example 293],very good herbicidal action,very good herbicidal action,very good herbicidal action,in some cases high selectivity
CCC1Cc2ccc(C)cc2C1Nc1ncnc(N)n1 (stereo not drawn) [Example 291],very good herbicidal action,very good herbicidal action,very good herbicidal action,in some cases high selectivity
CC1Cc2ccccc2C1Nc1ncnc(N)n1 (stereo not drawn) [Example 198],very good herbicidal action,very good herbicidal action,very good herbicidal action,in some cases high selectivity
Cc1cc(C)c2c(c1)C(Nc1ncnc(N)n1)CCO2 (stereo not drawn) [Example 4],very good herbicidal action,very good herbicidal action,very good herbicidal action,in some cases high selectivity
Cc1cccc2c1OCCC2Nc1ncnc(N)n1 (stereo not drawn) [Example 5],very good herbicidal action,very good herbicidal action,very good herbicidal action,in some cases high selectivity
CC1Cc2ccc(F)cc2C1Nc1ncnc(N)n1 (stereo not drawn) [Example 282],very good herbicidal action,very good herbicidal action,very good herbicidal action,in some cases high selectivity
CC(=O)Nc1ncnc(NC2c3cc(F)ccc3CC2C)n1 (stereo not drawn) [Example 283],very good herbicidal action,very good herbicidal action,very good herbicidal action,in some cases high selectivity
CC1Cc2cc(F)ccc2C1Nc1ncnc(N)n1 (stereo not drawn) [Example 55],very good herbicidal action,very good herbicidal action,very good herbicidal action,in some cases high selectivity
Cc1ccc2c(c1C)CCCC2Nc1ncnc(N)n1 (stereo not drawn) [Example 19],very good herbicidal action,very good herbicidal action,very good herbicidal action,in some cases high selectivity
Cc1cccc2c1C(Nc1ncnc(N)n1)C(C)C2 (stereo not drawn) [Example 290],very good herbicidal action,very good herbicidal action,very good herbicidal action,in some cases high selectivity
